Like-named read-outs stand apart in the source and are kept apart here.
Key:
Primary T cells = experiment: Antiproliferative activity (AP), mitotic index by flow cytometry; assay type: cell-based; conditions: T-cell, read-out: AP50 (Inhibitory concentration 50% for antiproliferative capacity)
Method: Primary T cells are cultured and exposed to different concentrations of the test compounds. Cell proliferation is analysed by measuring mitotic index (ie the number of cell divisions a population of cells undergoes) through flow cytometry based techniques. Mitotic index is expressed as percentage of untreated control. Inhibition of cell proliferation (AP) is then calculated (AP=100 minus % mitotic index compared to control, AP of control=0%). Inhibitory concentration 50% for antiproliferative capacity (AP50) is calculated.
(§1) In Tables 2, 3 and 4, ND means Not Determined.

[1] = test system: laboratory strain of HIV-1; experiment: Antiviral activity against HIV (AV), p24 in infected activated primary T cells; assay type: cell-based; conditions: for IC50: Human immunodeficiency virus 1, T-cell, read-out: AV50 (Inhibitory concentration 50% for antiviral activity); for antiviral and antiproliferative activity and cytotoxicity profile (in words): summary of AV, AP and cytotoxicity assays
Method: Activated primary T cells are infected with a laboratory strain of HIV-1, then cultured and exposed to different concentrations of the test compounds. HIV replication is analysed by measuring the viral protein p24 and expressed as percentage of untreated control. Inhibition of viral replication (AV) is then calculated (AV=100 minus the % p24 compared to control, AV of control=0%). Inhibitory concentration 50% for antiviral activity (AV50) is calculated.
as §1

[2] = HIV-1 infected activated primary T cells, p24

For `CNS(=O)(=O)Nc1cc(Nc2cc(-c3ccccc3OC)ncn2)ccc1OC` [Example 10, (2-Methoxy-5-(6-(2-methoxyphenyl)pyrimidin-4-ylamino)phenyl)(methylsulfamoyl)amine], the IC50 (Primary T cells; primary T cells, mitotic index) was 500 nM, the IC50 [1] was 800 nM and the “antiviral and antiproliferative activity and cytotoxicity profile (in words)” value [1] was “good antiviral and antiproliferative activity and a good cytotoxicity profile”.
For `CCOc1ccc(Nc2cc(-c3ccccc3OC)ncn2)cc1C(N)=O` [Example 111, 2-Ethoxy-5-[6-(2-methoxy-phenyl)-pyrimidin-4-ylamino]-benzamide], the IC50 (Primary T cells; primary T cells, mitotic index) was 16 nM, the IC50 [1] was 7 nM and the “antiviral and antiproliferative activity and cytotoxicity profile (in words)” value [1] was “good antiviral and antiproliferative activity and a good cytotoxicity profile”.
In the case of `COc1cc(F)c(Nc2cc(-c3cc(F)ccc3OC)ncn2)cc1C(N)=O` [Example 144, 4-Fluoro-5-[6-(5-fluoro-2-methoxy-phenyl)-pyrimidin-4-ylamino]-2-methoxy-benzamide], the IC50 (Primary T cells) is reported as 90 nM, the IC50 [1] is reported as under 3 nM and the “antiviral and antiproliferative activity and cytotoxicity profile (in words)” value [1] is reported as “good antiviral and antiproliferative activity and a good cytotoxicity profile”.
Compound `CCOC(=O)c1cc(Nc2cc(-c3ccccc3OC)ncn2)ccc1N1CCOCC1` [Example 18, Ethyl 5-(6-(2-methoxyphenyl)pyrimidin-4-ylamino)-2-morpholinobenzoate] has an IC50 (Primary T cells; primary T cells, mitotic index) of over 500 nM and an IC50 [1] of over 1500 nM.
With `CCOc1cc(F)ccc1-c1cc(Nc2cc(C(N)=O)c(OC)cc2F)ncn1` [Example 147, 5-[6-(2-Ethoxy-4-fluoro-phenyl)-pyrimidin-4-ylamino]-4-fluoro-2-methoxy-benzamide] the IC50 (Primary T cells) was 40 nM, the IC50 [1] was 5 nM and the “antiviral and antiproliferative activity and cytotoxicity profile (in words)” value [1] was “good antiviral and antiproliferative activity and a good cytotoxicity profile”.
`COc1ccc(Nc2cc(-c3ccccc3OC)ncn2)cc1N` [Example 41, 4-Methoxy-N1-(6-(2-methoxyphenyl)pyrimidin-4-yl)benzene-1,3-diamine] was tested, and the IC50 (Primary T cells) was 80 nM, the IC50 [1] was 60 nM and the “antiviral and antiproliferative activity and cytotoxicity profile (in words)” value [1] was “good antiviral and antiproliferative activity and a good cytotoxicity profile”.
With `COc1ccc(Nc2cc(-c3ccccc3OC)ncn2)cc1C(=O)NCc1ccncc1` [Example 28, 2-Methoxy-5-(6-(2-methoxyphenyl)pyrimidin-4-ylamino)-N-(pyridin-4-ylmethyl)benzamide] the IC50 (Primary T cells) was over 500 nM and the IC50 [1] was over 500 nM.
`COc1ccccc1-c1cc(Nc2ccc(Cl)c(CO)c2)ncn1` [Example 6, (2-Chloro-5-(6-(2-methoxyphenyl)pyrimidin-4-ylamino)phenyl)methanol] showed an IC50 (Primary T cells; primary T cells, mitotic index) of over 500 nM and an IC50 [1] of over 1500 nM.
With `COc1ccc(Nc2cc(-c3ccccc3OC)ncn2)cc1CO` [Example 24, (2-Methoxy-5-(6-(2-methoxyphenyl)pyrimidin-4-ylamino)phenyl)methanol] the IC50 (Primary T cells) was over 500 nM and the IC50 [1] was over 500 nM.
`CCOc1ccccc1-c1cc(Nc2ccc(OC)c(C(N)=O)c2)ncn1` [Example 129, 5-[6-(2-Ethoxy-phenyl)-pyrimidin-4-ylamino]-2-methoxy-benzamide] was tested, and the IC50 (Primary T cells) was under 80 nM, the IC50 [1] was 10 nM and the “antiviral and antiproliferative activity and cytotoxicity profile (in words)” value [1] was “good antiviral and antiproliferative activity and a good cytotoxicity profile”.
Compound `COc1ccc(Nc2cc(-c3ccccc3OC)ncn2)cc1NS(C)(=O)=O` [Example 9, N-(2-Methoxy-5-(6-(2-methoxyphenyl)pyrimidin-4-ylamino)phenyl)methanesulfonamide] has an IC50 (Primary T cells; primary T cells, mitotic index) of over 1500 nM and an IC50 [1] of under 1500 nM.
In the case of `CCOc1ccc(F)cc1-c1cc(Nc2cc(F)c(OC)c(C(N)=O)c2)ncn1` [Example 142, 5-[6-(2-Ethoxy-5-fluoro-phenyl)-pyrimidin-4-ylamino]-3-fluoro-2-methoxy-benzamide], the IC50 (Primary T cells) is reported as 40 nM, the IC50 [1] is reported as 40 nM and the “antiviral and antiproliferative activity and cytotoxicity profile (in words)” value [1] is reported as “good antiviral and antiproliferative activity and a good cytotoxicity profile”.
For `CN1CC[C@H](c2c(O)cc(O)c3c(=O)cc(-c4ccccc4Cl)oc23)[C@H](O)C1` [Flavopiridol, reference compound], the IC50 (Primary T cells; primary T cells, mitotic index) was 30 nM, the IC50 [1, 2] was 100 nM and the “anti-HIV and cytotoxicity profile (in words)” value ([1]; summary of AV and cytotoxicity assays) was “poor anti-HIV and cytotoxicity profile”.
With `COc1cc(F)c(Nc2cc(-c3ccccc3OC)ncn2)cc1C(N)=O` [Example 143, 4-Fluoro-2-methoxy-5-[6-(2-methoxy-phenyl)-pyrimidin-4-ylamino]-benzamide] the IC50 (Primary T cells) was over 80 nM, the IC50 [1] was 16 nM and the “antiviral and antiproliferative activity and cytotoxicity profile (in words)” value [1] was “good antiviral and antiproliferative activity and a good cytotoxicity profile”.
`COc1ccc(Nc2cc(-c3ccccc3OC)ncn2)cc1F` [Example 22, N-(3-Fluoro-4-methoxyphenyl)-6-(2-methoxyphenyl)pyrimidin-4-amine] showed an IC50 (Primary T cells; primary T cells, mitotic index) of over 500 nM and an IC50 [1] of under 1500 nM.
In the case of `COc1ccccc1-c1cc(Nc2ccc(Cl)c(Cn3cnc4ccccc43)c2)ncn1` [Example 16, N-(3-((1H-benzo[d]imidazol-1-yl)methyl)-4-chlorophenyl)-6-(2-methoxyphenyl)pyrimidin-4-amine], the IC50 (Primary T cells) is reported as 100 nM, the IC50 [1] is reported as 110 nM and the “antiviral and antiproliferative activity and cytotoxicity profile (in words)” value [1] is reported as “good antiviral and antiproliferative activity and a good cytotoxicity profile”.
Compound `COc1ccc(Nc2cc(-c3ccccc3OC)ncn2)cc1C(=O)NCc1ccccc1` [Example 23, N-Benzyl-2-methoxy-5-(6-(2-methoxyphenyl)pyrimidin-4-ylamino)benzamide] has an IC50 (Primary T cells) of over 500 nM and an IC50 [1] of over 500 nM.
`COc1ccc(Nc2cc(-c3ccccc3OC)ncn2)cc1OC(=O)C(C)(C)C` [Example 26, 2-methoxy-5-(6-(2-methoxyphenyl)pyrimidin-4-ylamino)phenyl pivalate] was tested, and the IC50 (Primary T cells; primary T cells, mitotic index) was 100 nM, the IC50 [1, 2] was 100 nM and the “antiviral and antiproliferative activity and cytotoxicity profile (in words)” value [1] was “good antiviral and antiproliferative activity and a good cytotoxicity profile”.
`CCOc1ccc(Nc2cc(-c3ccccc3OC)ncn2)cc1Cn1cnc2ccccc21` [Example 39, N-(3-((1H-Benzo[d]imidazol-1-yl)methyl)-4-ethoxyphenyl)-6-(2-methoxyphenyl)pyrimidin-4-amine] showed an IC50 (Primary T cells; primary T cells, mitotic index) of 300 nM and an IC50 [1] of over 1000 nM.
For `COc1ccc(Nc2cc(-c3ccccc3OC)ncn2)cc1C=O` [Example 29, 2-Methoxy-5-(6-(2-methoxyphenyl)pyrimidin-4-ylamino)benzaldehyde], the IC50 (Primary T cells; primary T cells, mitotic index) was over 500 nM and the IC50 [1] was over 500 nM.
With `COc1ccc(Nc2cc(-c3cc(F)ccc3OC)ncn2)cc1N` [Example 75, N^1-[6-(5-Fluoro-2-methoxy-phenyl)-pyrimidin-4-yl]-4-methoxy-benzene-1,3-diamine] the IC50 (Primary T cells; primary T cells, mitotic index) was under 80 nM, the IC50 [1] was 10 nM and the “antiviral and antiproliferative activity and cytotoxicity profile (in words)” value [1] was “good antiviral and antiproliferative activity and a good cytotoxicity profile”.
For `COc1ccccc1-c1cc(Nc2ccc(N3CCOCC3)c(CO)c2)ncn1` [Example 19, (5-(6-(2-Methoxyphenyl)pyrimidin-4-ylamino)-2-morpholinophenyl)methanol], the IC50 (Primary T cells; primary T cells, mitotic index) was over 500 nM and the IC50 [1] was 1000 nM.
For `COc1ccc(Nc2cc(-c3ccccc3OC)ncn2)cc1Cn1cnc2ccccc21` [Example 31, N-(3-((1H-Benzo[d]imidazol-1-yl)methyl)-4-methoxyphenyl)-6-(2-methoxyphenyl)pyrimidin-4-amine], the IC50 (Primary T cells) was 350 nM, the IC50 [1] was 200 nM and the “antiviral and antiproliferative activity and cytotoxicity profile (in words)” value [1] was “good antiviral and antiproliferative activity and a good cytotoxicity profile”.
With `COc1ccc(Nc2cc(-c3ccc(F)cc3OC)ncn2)cc1N` [Example 64] the IC50 (Primary T cells; primary T cells, mitotic index) was under 80 nM, the IC50 [1] was 5000 nM and the “antiviral and antiproliferative activity and cytotoxicity profile (in words)” value [1] was “good antiviral and antiproliferative activity and a good cytotoxicity profile”.
`COc1ccc(Nc2cc(-c3ccccc3OC)ncn2)cc1C(N)=O` [Example 45, 2-methoxy-5-(6-(2-methoxyphenyl)pyrimidin-4-ylamino)benzamide] was tested, and the IC50 (Primary T cells) was 80 nM, the IC50 [1] was 50 nM and the “antiviral and antiproliferative activity and cytotoxicity profile (in words)” value [1] was “good antiviral and antiproliferative activity and a good cytotoxicity profile”.
`COc1ccc(Nc2cc(-c3ccccc3OC)ncn2)cc1O` [Example 32, 2-Methoxy-5-(6-(2-methoxyphenyl)pyrimidin-4-ylamino)phenol] was tested, and the IC50 (Primary T cells; primary T cells, mitotic index) was 70 nM, the IC50 [1] was 150 nM and the “antiviral and antiproliferative activity and cytotoxicity profile (in words)” value [1] was “good antiviral and antiproliferative activity and a good cytotoxicity profile”.
With `CCOc1ccc(Nc2cc(-c3ccc(F)cc3OC)ncn2)cc1C(N)=O` [Example 112, 2-Ethoxy-5-[6-(4-fluoro-2-methoxy-phenyl)-pyrimidin-4-ylamino]-benzamide] the IC50 (Primary T cells; primary T cells, mitotic index) was under 3 nM, the IC50 [1] was 6 nM and the “antiviral and antiproliferative activity and cytotoxicity profile (in words)” value [1] was “good antiviral and antiproliferative activity and a good cytotoxicity profile”.
`COc1ccc(Nc2cc(-c3ccccc3OC)ncn2)cc1CNCc1ccccc1` [Example 1, N-(3-((Benzylamino)methyl)-4-methoxyphenyl)-6-(2-methoxyphenyl)pyrimidin-4-amine] showed an IC50 (Primary T cells) of 2500 nM.
For `COc1ccccc1-c1cc(Nc2ccc(N(C)C)c(Cn3cnc4ccccc43)c2)ncn1` [Example 42, 2-((1H-Benzo[d]imidazol-1-yl)methyl)-N4-(6-(2-methoxyphenyl)pyrimidin-4-yl)-N1,N1-dimethylbenzene-1,4-diamine], the IC50 (Primary T cells) was 1800 nM.

From US10294218B2 (VIROSTATICS SRL, priority 2012, dated 2019)
